Reference: patent USRE39591E1, “6-O-substituted ketolides having antibacterial activity” (Abbott Laboratories, priority 1996, dated 2007)
Values after ≈ are worked out from the molar mass of the structure shown.

System: up to 32 different microorganisms
Test: in vitro antibacterial activity (MIC), agar dilution on Brain Heart Infusion (BHI) agar with Steers replicator
Type: cell-based
Conditions: unit assumed
Experimental: Representative compounds of the present invention were assayed in vitro for antibacterial activity as follows: Twelve petri dishes containing successive aqueous dilutions of the test compound mixed with 10 mL of sterilized Brain Heart Infusion (BHI) agar (Difco 0148-01-5) were prepared. Each plate was inoculated with 1:100 (or 1:10 for slow-growing strains, such as Micrococcus and Streptococcus) dilutions of up to 32 different microorganisms, using a Steers replicator block. The inoculated plates were incubated at 35°-37° C. for 20 to 24 hours. In addition, a control plate, using BHI agar containing no test compound, was prepared and incubated at the beginning and end of each test.
An additional plate containing a compound having known susceptibility patterns for the organisms being tested and belonging to the same antibiotic class as the test compound was also prepared and incubated as a further control, as well as to provide test-to-test comparability. Erythromycin A was used for this purpose.
After incubation, each plate was visually inspected. The minimum inhibitory concentration (MIC) was defined as the lowest concentration of drug yielding no growth, a slight haze, or sparsely isolated colonies on the inoculum spot as compared to the growth control.

[1] = Candida albicans CCH 442 (code TT)
[2] = Enterococcus faecism ATCC 8043 (code II)
[3] = Escherichia coli DC-2 (code SS)
[4] = Escherichia coli JUHL (code QQ)
[5] = Haemophilis influenzae DILL AMP R (code WW)
[6] = Micrococcus luteus ATCC 4698 (code PP)
[7] = Micrococcus luteus ATCC 9341 (code OO)
[8] = Mycobacterium smegmatis ATCC 114 (code UU)
[9] = Nocardia Asteroides ATCC9970 (code VV)
[10] = Staphylococcus aureus 1775 (code GG)
[11] = Staphylococcus aureus A5177 (code BB)
[12] = Staphylococcus aureus A-5278 (code CC)
[13] = Staphylococcus aureus ATCC 6538P (code AA)
[14] = Staphylococcus aureus CMX 553 (code FF)
[15] = Staphylococcus aureus CMX 642A (code DD)
[16] = Staphylococcus aureus NCTC10649M (code EE)
[17] = Staphylococcus epidermidis 3519 (code HH)
[18] = Streptococcus Pneumonia 5649 (code ZZA)
[19] = Streptococcus Pneumonia 5979 (code ZZ)
[20] = Streptococcus Pneumonia ATCC6303 (code XX)
[21] = Streptococcus Pneumonia GYR 1171 (code YY)
[22] = Streptococcus agalactiae CMX 508 (code KK)
[23] = Streptococcus bovis A-5169 (code JJ)
[24] = Streptococcus pyogenes 930 (code MM)
[25] = Streptococcus pyogenes EES61 (code LL)
[26] = Streptococcus pyogenes PIU 2548 (code NN)

| SMILES | MIC [1] [mg/L] | MIC [2] [mg/L] | MIC [3] [mg/L] | MIC [4] [mg/L] | MIC (Escherichia coli SS (code RR)) [mg/L] | MIC [5] [mg/L] | MIC [6] [mg/L] | MIC [7] [mg/L] | MIC [9] [mg/L] | MIC [10] [mg/L] | MIC [11] [mg/L] | MIC [12] [mg/L] | MIC [13] [mg/L] | MIC [14] [mg/L] | MIC [15] [mg/L] | MIC [16] [mg/L] | MIC [17] [mg/L] | MIC [18] [mg/L] | MIC [19] [mg/L] | MIC [20] [mg/L] | other results |
| --- | --- | --- | --- | --- | --- | --- | --- | --- | --- | --- | --- | --- | --- | --- | --- | --- | --- | --- | --- | --- | --- |
| CC[C@H]1OC(=O)[C@H](C)C(=O)[C@H](C)[C@@H](O[C@@H]2O[C@H](C)C[C@H](N(C)C)[C@H]2O)[C@@](C)(OCCNCCc2ccccc2)C[C@@H](C)C(=O)[C@H](C)[C@@H](O)[C@]1(C)O [Example 10] | > 100 | 6.2 (≈ 8.6 µM) | > 100 | > 100 | 1.56 (≈ 2.16 µM) | 64 (≈ 88.8 µM) | 1.56 (≈ 2.16 µM) | 0.2 (≈ 0.277 µM) | 1.56 (≈ 2.16 µM) | > 100 | 6.2 (≈ 8.6 µM) | > 100 | 6.2 (≈ 8.6 µM) | 6.2 (≈ 8.6 µM) | 6.2 (≈ 8.6 µM) | 6.2 (≈ 8.6 µM) | 6.2 (≈ 8.6 µM) | 4 (≈ 5.55 µM) | > 128 | 2 (≈ 2.77 µM) | MIC [8]: 12.5 mg/L (≈ 17.3 µM); MIC [21]: 2 mg/L (≈ 2.77 µM); MIC [22]: 1.56 mg/L (≈ 2.16 µM); MIC [23]: 0.2 mg/L (≈ 0.277 µM); MIC [24]: > 100 mg/L; MIC [25]: 0.39 mg/L (≈ 0.541 µM); MIC [26]: 1.56 mg/L (≈ 2.16 µM) |
| CC[C@H]1OC(=O)[C@H](C)C(=O)[C@H](C)[C@@H](O[C@@H]2O[C@H](C)C[C@H](N(C)C)[C@H]2O)[C@@](C)(OCCNCc2ccncc2)C[C@@H](C)C(=O)[C@H](C)[C@@H](O)[C@]1(C)O [Example 12, Compound of Formula (VIII): X is O, R is —CH2CH2NHCH2-(4-pyridyl)] | > 100 | 1.56 | > 100 | > 100 | 0.39 | 32 | 0.78 | 0.39 | 0.39 | > 100 | 3.1 | > 100 | 6.2 | 6.2 | 6.2 | 6.2 | 12.5 | 2 | > 128 | 0.25 | MIC [22]: 0.78 mg/L; MIC [23]: 0.2 mg/L; MIC [24]: > 100 mg/L; MIC [25]: 0.39 mg/L; MIC [26]: 1.56 mg/L |
| CC[C@H]1OC(=O)[C@H](C)C(=O)[C@H](C)[C@@H](O[C@@H]2O[C@H](C)C[C@H](N(C)C)[C@H]2O)[C@@](C)(OCC=Cc2ccccc2)C[C@@H](C)C(=O)[C@H](C)[C@@H](O)[C@]1(C)O [Example 14, Compound of Formula (VIII): X is O, R is —CH2CH═CH-Phenyl] | > 100 | 0.78 | > 100 | > 100 | 6.2 | 128 | 0.78 | 0.39 | 3.1 | > 100 | 1.56 | > 100 | 1.56 | 3.1 | 3.1 | 3.1 | 1.56 | 2 | 128 | 1 | MIC [8]: 3.1 mg/L; MIC [21]: 0.25 mg/L; MIC [22]: 0.2 mg/L; MIC [23]: 0.2 mg/L; MIC [24]: 50 mg/L; MIC [25]: 0.39 mg/L; MIC [26]: 0.78 mg/L |
| CC[C@H]1OC(=O)[C@H](C)C(=O)[C@H](C)[C@@H](O[C@@H]2O[C@H](C)C[C@H](N(C)C)[C@H]2O)[C@@](C)(OCCCc2ccccc2)C[C@@H](C)C(=O)[C@H](C)[C@@H](O)[C@]1(C)O [Example 15, Compound of Formula (VIII): X is O, R is —CH2CH2CH2-Phenyl] | > 100 | 1.56 | > 100 | > 100 | 6.2 | > 64 | 3.1 | 0.78 | 1.56 | > 100 | 6.2 | > 100 | 6.2 | 6.2 | 6.2 | 6.2 | 6.2 | 1 | 32 | 1 | MIC [8]: 6.2 mg/L; MIC [21]: 1 mg/L; MIC [22]: 0.2 mg/L; MIC [23]: 0.2 mg/L; MIC [24]: 100 mg/L; MIC [25]: 0.39 mg/L; MIC [26]: 3.1 mg/L |
